From publication PMC4955735 (Anesthesiology, 2016)
Where two headings read alike, the source gives them in different places.

Legend:
[1] = tested on: S.typhimurium TA 1537; experiment: Bacteria reverse mutation assay
[2] = tested on: S.typhimurium TA 98; experiment: Bacteria reverse mutation assay
[3] = tested on: S.typhimurium TA 100
[4] = tested on: S.typhimurium TA 1535
[5] = tested on: THP-1, HepG2 and HEK293 cell lines; experiment: In vitro cell assays; assay type: cell-based; conditions: 0.16 mM to 2.5 mM
[6] = humans; cited from earlier work
[7] = rodents; cited from earlier work
[8] = tested on: rats; experiment: Escalating phenylephrine infusion during continuous ketamine infusion; assay type: in vivo, rat; conditions: phenylephrine 4 to 10 μg/kg/min during steady state shallow ketamine anesthesia; n=3

**Q.** Which results are given for `Nc1ccc2cc3ccccc3cc2c1` [2-AA, 2-Aminoanthracene, reference compound]?
**A.** number of colonies, positive control ([1]; TA 1537, +S9, 10 μg 2-Aminoanthracene per plate): 2-AA 141; number of colonies, positive control ([2]; TA 98, +S9, 10 μg 2-Aminoanthracene per plate): 2-AA 1101; number of colonies, positive control ([3]; TA 100, +S9, 10 μg 2-Aminoanthracene per plate): 2-AA 1307; number of colonies, positive control ([4]; TA 1535, +S9, 10 μg 2-Aminoanthracene per plate): 2-AA 91

**Q.** With `COc1ccc2nc3cc(Cl)ccc3c(NCCCNCCCl)c2c1` [191-A, ICR 191 Acridine, reference compound] as the compound, how does the “number of colonies, positive control” value ([1]; TA 1537, −S9, 1 μg ICR 191 Acridine per plate) read?
**A.** 191-A 250

**Q.** For `COc1cccc2c1C(=O)c1c(O)c3c(c(O)c1C2=O)C[C@@](O)(C(C)=O)C[C@@H]3O[C@H]1C[C@H](N)[C@H](O)[C@H](C)O1` [D-myc, Daunomycin, reference compound], which “number of colonies, positive control” value ([2]; TA 98, −S9, 6 μg Daunomycin per plate) is on record?
**A.** D-myc 505

**Q.** Which “toxicity in the same cell lines compared with calabadion 2” value [5] does the source give for `CC(O)COC[C@H]1O[C@@H]2O[C@H]3[C@H](O)[C@@H](O)[C@@H](O[C@H]4[C@H](O)[C@@H](O)[C@@H](O[C@H]5[C@H](O)[C@@H](O)[C@@H](O[C@H]6[C@H](O)[C@@H](O)[C@@H](O[C@H]7[C@H](O)[C@@H](O)[C@@H](O[C@H]8[C@H](O)[C@@H](O)[C@@H](O[C@H]1[C@H](O)[C@H]2O)O[C@@H]8COCC(C)O)O[C@@H]7COCC(C)O)O[C@@H]6COCC(C)O)O[C@@H]5COCC(C)O)O[C@@H]4COCC(C)O)O[C@@H]3COCC(C)O` (stereo partly drawn) [HP-β-CD, hydroxypropyl-β-cyclodextrin] here?
**A.** very comparable

**Q.** For `[N-]=[N+]=[N-].[Na+]` [SA, Sodium Azide, reference compound], which “number of colonies, positive control” value ([3]; TA 100, −S9, 1.5 μg Sodium Azide per plate) is on record?
**A.** SA 282

**Q.** What about the “number of colonies, positive control” value ([4]; TA 1535, −S9, 1.5 μg Sodium Azide per plate) of the same compound?
**A.** SA 446

**Q.** With `CC[C@H]1OC(=O)[C@H](C)[C@@H](O[C@H]2C[C@@](C)(OC)[C@@H](O)[C@H](C)O2)[C@H](C)[C@@H](O[C@@H]2O[C@H](C)C[C@H](N(C)C)[C@H]2O)[C@](C)(O)C[C@@H](C)C(=O)[C@H](C)[C@@H](O)[C@]1(C)O` [erythromycin] as the compound, how does the “toxicity in the same cell lines compared with calabadion 2” value [5] read?
**A.** very comparable

**Q.** For `CCOC(=O)c1cncn1[C@H](C)c1ccccc1` [etomidate], which “plasma concentration at awakening” value [6] is on record?
**A.** 280 ng/mL

**Q.** And the “plasma concentration at maintenance of sedation” value [6]?
**A.** 300 to 600 ng/mL

**Q.** And the “plasma concentration at awakening” value [7]?
**A.** 440 ng/mL

**Q.** What does the source list for `CNC1(c2ccccc2Cl)CCCCC1=O` (stereo not drawn) [ketamine]?
**A.** plasma concentration at awakening [6]: 1000 ng/mL; plasma concentration at maintenance of sedation [6]: 2000 to 3000 ng/mL; plasma concentration at awakening [7]: 5000 ng/mL

**Q.** With `CNC[C@H](O)c1cccc(O)c1` [phenylephrine] as the compound, how does the “effect on EEG power” value [8] read?
**A.** without effects on EEG power

**Q.** And the “effect on MAP” value [8]?
**A.** significant MAP increases
